Assay results taken from the supplement of paper PMC10307832.

What was measured:
Test in all cases: relative viability (nuclei count vs DMSO), 5 days (fraction); higher = more cells survive
201T = tested on: 201T
How it was run: (§1)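 Dosing by pin tool came one day after lung cancer cell lines were seeded in 1536-well plates, using either one drug or a fixed anchor-drug dose plus five library-drug doses (not always all listed) in √10 steps. After 5 days, nuclei were counted on 4× images. Relative viability is treated-well nuclei count divided by vehicle-well nuclei count, and values are medians of duplicate plates.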

NCI-H1563 = tested on: NCI-H1563
How it was run: as §1

NCI-H661 = tested on: NCI-H661
How it was run: as §1

NCI-H1915 = tested on: NCI-H1915
How it was run: as §1

HCC-15 = tested on: HCC-15
How it was run: as §1

HOP-62 = tested on: HOP-62
How it was run: as §1

NCI-H1993 = tested on: NCI-H1993
How it was run: as §1

COR-L 105 = tested on: COR-L 105
How it was run: as §1

HCC-78 = tested on: HCC-78
How it was run: as §1

LK-2 = tested on: LK-2
How it was run: as §1

BEN = tested on: BEN
How it was run: as §1

EKVX = tested on: EKVX
How it was run: as §1

In the case of `Cc1csc(=NC2CCCCC2)n1/N=C/c1ccc(O)c(O)c1O` [MIM1] + N=C(N)NC(=N)NCCc1ccccc1 [Phenformin] (partner 250 µM), the relative viability (201T; first compound 6.325 µM) is reported as 0.345, the relative viability (201T; first compound 20 µM) is reported as 0.321 and the relative viability (NCI-H1563; first compound 0.2 µM) is reported as 0.672. The relative viability (NCI-H1563; first compound 0.6325 µM) was 0.734, the relative viability (NCI-H1563; first compound 2 µM) was 0.706 and the relative viability (NCI-H1563; first compound 6.325 µM) was 0.631. For the same molecule, the relative viability (NCI-H1563; first compound 20 µM) was 0.478, the relative viability (NCI-H661; first compound 0.2 µM) was 0.254 and the relative viability (NCI-H661; first compound 0.6325 µM) was 0.28. It also gave a relative viability (NCI-H661; first compound 2 µM) of 0.274, a relative viability (NCI-H661; first compound 6.325 µM) of 0.26 and a relative viability (NCI-H661; first compound 20 µM) of 0.24. The relative viability (NCI-H1915; first compound 0.2 µM) was 0.421, the relative viability (NCI-H1915; first compound 0.6325 µM) was 0.306 and the relative viability (NCI-H1915; first compound 2 µM) was 0.344. It also gave a relative viability (NCI-H1915; first compound 6.325 µM) of 0.295, a relative viability (NCI-H1915; first compound 20 µM) of 0.22 and a relative viability (HCC-15; first compound 0.2 µM) of 0.501. The relative viability (HCC-15; first compound 2 µM) was 0.51, the relative viability (HCC-15; first compound 6.325 µM) was 0.162 and the relative viability (HCC-15; first compound 20 µM) was 0.114. It also gave a relative viability (HOP-62; first compound 0.2 µM) of 0.641, a relative viability (HOP-62; first compound 0.6325 µM) of 0.603 and a relative viability (HOP-62; first compound 2 µM) of 0.624. It also gave a relative viability (HOP-62; first compound 6.325 µM) of 0.608, a relative viability (HOP-62; first compound 20 µM) of 0.157 and a relative viability (NCI-H1993; first compound 0.2 µM) of 0.481. For the same molecule, the relative viability (NCI-H1993; first compound 0.6325 µM) was 0.545, the relative viability (NCI-H1993; first compound 2 µM) was 0.474 and the relative viability (NCI-H1993; first compound 6.325 µM) was 0.443. The relative viability (NCI-H1993; first compound 20 µM) was 0.463, the relative viability (COR-L 105; first compound 0.2 µM) was 0.513 and the relative viability (COR-L 105; first compound 0.6325 µM) was 0.461. It also gave a relative viability (COR-L 105; first compound 2 µM) of 0.404, a relative viability (COR-L 105; first compound 6.325 µM) of 0.316 and a relative viability (COR-L 105; first compound 20 µM) of 0.307. The relative viability (HCC-78; first compound 0.2 µM) was 0.81, the relative viability (HCC-78; first compound 0.6325 µM) was 0.53 and the relative viability (HCC-78; first compound 2 µM) was 0.628. The relative viability (HCC-78; first compound 6.325 µM) was 0.597, the relative viability (HCC-78; first compound 20 µM) was 0.347 and the relative viability (LK-2; first compound 0.2 µM) was 0.602. It also gave a relative viability (LK-2; first compound 2 µM) of 0.49, a relative viability (LK-2; first compound 6.325 µM) of 0.147 and a relative viability (LK-2; first compound 20 µM) of 0.148. It also gave a relative viability (BEN; first compound 0.2 µM) of 0.261, a relative viability (BEN; first compound 0.6325 µM) of 0.236 and a relative viability (BEN; first compound 2 µM) of 0.236. For the same molecule, the relative viability (BEN; first compound 6.325 µM) was 0.28, the relative viability (BEN; first compound 20 µM) was 0.213 and the relative viability (EKVX; first compound 0.2 µM) was 0.253. For the same molecule, the relative viability (EKVX; first compound 0.6325 µM) was 0.144, the relative viability (EKVX; first compound 2 µM) was 0.213 and the relative viability (EKVX; first compound 6.325 µM) was 0.209. The relative viability (EKVX; first compound 20 µM) was 0.198.
